{"source": "patent US12004868B2", "about": "“Liposomal mitigation of drug-induced inhibition of the cardiac IKr channel” (Signpath Pharma, Inc., priority 2011, dated 2024)", "key": {"[1]": {"settings": "cited from earlier work; for incidence of QT prolongation: patients, Aloxi at doses above 2.25 mg, sotalol 1288 patients, vandetanib grade 3/4"}, "calcium channel": {"system": "calcium channel", "settings": "literature; read-out: calcium channel blocking EC50; cited from earlier work"}, "rabbit heart [2]": {"system": "rabbit heart"}, "NaV1.5": {"target": "NaV1.5 (Homo sapiens, UniProt Q14524)", "sequence (Q14524 whole entry)": "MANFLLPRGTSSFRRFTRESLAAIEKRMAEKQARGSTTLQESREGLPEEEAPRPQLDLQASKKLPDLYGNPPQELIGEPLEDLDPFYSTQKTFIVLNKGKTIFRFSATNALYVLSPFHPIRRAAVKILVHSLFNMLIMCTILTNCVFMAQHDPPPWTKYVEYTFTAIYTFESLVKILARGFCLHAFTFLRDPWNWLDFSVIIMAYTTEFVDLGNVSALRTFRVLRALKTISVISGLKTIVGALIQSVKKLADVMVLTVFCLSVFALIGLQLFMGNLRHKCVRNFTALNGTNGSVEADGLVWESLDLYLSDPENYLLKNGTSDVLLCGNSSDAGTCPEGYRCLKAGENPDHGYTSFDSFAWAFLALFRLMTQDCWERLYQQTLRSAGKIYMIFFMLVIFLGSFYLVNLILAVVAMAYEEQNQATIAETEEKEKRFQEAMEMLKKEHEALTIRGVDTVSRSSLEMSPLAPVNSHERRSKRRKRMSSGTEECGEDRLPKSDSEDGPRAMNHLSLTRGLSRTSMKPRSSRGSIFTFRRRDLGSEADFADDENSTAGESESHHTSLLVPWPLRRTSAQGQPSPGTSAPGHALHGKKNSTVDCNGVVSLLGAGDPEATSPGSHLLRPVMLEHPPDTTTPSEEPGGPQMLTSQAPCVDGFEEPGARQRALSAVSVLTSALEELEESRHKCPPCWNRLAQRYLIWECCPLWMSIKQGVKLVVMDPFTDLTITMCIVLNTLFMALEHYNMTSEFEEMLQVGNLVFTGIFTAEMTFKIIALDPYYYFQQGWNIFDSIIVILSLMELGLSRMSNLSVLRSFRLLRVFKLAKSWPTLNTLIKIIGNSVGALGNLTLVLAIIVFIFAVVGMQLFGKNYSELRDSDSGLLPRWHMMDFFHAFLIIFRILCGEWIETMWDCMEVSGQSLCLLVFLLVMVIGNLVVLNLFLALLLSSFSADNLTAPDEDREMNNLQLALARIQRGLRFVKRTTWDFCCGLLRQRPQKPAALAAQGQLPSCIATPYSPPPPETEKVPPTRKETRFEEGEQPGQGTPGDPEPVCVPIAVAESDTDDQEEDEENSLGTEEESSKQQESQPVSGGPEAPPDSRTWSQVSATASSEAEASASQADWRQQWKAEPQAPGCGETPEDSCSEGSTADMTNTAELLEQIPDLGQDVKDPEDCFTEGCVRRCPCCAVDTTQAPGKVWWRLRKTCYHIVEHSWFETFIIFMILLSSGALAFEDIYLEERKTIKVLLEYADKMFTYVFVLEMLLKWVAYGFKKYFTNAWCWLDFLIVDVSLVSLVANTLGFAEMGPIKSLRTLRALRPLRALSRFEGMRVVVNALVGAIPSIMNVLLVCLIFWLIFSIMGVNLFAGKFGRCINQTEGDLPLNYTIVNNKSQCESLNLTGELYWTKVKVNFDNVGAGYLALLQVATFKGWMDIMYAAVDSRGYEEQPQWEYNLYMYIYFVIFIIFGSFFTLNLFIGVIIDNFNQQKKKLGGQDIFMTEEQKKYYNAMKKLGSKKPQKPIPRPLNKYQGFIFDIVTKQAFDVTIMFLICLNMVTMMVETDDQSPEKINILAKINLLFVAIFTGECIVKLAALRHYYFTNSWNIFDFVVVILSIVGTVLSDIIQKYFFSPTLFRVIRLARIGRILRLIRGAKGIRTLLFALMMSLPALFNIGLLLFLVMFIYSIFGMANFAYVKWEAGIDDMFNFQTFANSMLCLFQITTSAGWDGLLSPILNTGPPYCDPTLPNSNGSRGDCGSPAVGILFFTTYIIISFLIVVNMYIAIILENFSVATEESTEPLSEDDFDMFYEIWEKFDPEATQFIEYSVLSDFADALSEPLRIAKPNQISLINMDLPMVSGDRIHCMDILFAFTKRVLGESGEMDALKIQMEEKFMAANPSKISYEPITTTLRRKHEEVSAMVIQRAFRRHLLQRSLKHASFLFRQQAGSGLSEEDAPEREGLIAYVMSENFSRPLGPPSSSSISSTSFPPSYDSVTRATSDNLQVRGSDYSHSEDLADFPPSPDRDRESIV", "settings": "literature; read-out: NaV1.5 IC50 (Doherty et al); cited from earlier work"}, "CaV": {"system": "CaV", "settings": "literature; read-out: CaV IC50 (Doherty et al); cited from earlier work"}, "[3]": {"settings": "cited from earlier work; for Cmax: read-out: steady state Cmax"}, "[4]": {"settings": "crizotinib intravenously; nilotinib orally up to 600 mg/kg; cited from earlier work"}, "in vitro rabbit heart [5]": {"system": "in vitro rabbit heart", "test": "In vitro rabbit heart QTc intervals", "set-up": "dose or concentration left out as unconfirmed", "settings": "liposomes 9:1"}, "in vitro rabbit hearts": {"system": "in vitro rabbit hearts", "test": "Left ventricular pressure in in vitro rabbit hearts"}, "IKs": {"target": "IKs (Homo sapiens, UniProt P51787)", "sequence (P51787 whole entry)": "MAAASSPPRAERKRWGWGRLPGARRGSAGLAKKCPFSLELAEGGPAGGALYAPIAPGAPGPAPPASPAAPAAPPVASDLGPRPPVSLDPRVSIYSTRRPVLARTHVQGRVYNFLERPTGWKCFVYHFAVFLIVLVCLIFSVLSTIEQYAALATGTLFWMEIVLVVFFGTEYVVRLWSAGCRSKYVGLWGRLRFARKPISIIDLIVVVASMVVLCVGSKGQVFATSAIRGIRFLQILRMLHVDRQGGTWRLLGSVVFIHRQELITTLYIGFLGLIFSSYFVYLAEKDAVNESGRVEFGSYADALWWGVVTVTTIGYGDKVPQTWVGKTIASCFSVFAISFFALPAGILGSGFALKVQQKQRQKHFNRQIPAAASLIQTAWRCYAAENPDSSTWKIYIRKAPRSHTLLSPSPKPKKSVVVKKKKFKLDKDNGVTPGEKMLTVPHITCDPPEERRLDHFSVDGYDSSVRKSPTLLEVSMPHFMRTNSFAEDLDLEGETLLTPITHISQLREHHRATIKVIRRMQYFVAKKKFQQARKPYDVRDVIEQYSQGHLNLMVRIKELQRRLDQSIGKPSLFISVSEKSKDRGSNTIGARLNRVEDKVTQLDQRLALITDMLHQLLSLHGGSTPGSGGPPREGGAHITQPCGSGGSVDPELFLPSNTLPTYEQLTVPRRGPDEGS", "settings": "literature; cited from earlier work"}, "[6]": {"settings": "cited from earlier work"}, "hERG": {"target": "hERG (Homo sapiens, UniProt Q12809)", "sequence (Q12809 whole entry)": "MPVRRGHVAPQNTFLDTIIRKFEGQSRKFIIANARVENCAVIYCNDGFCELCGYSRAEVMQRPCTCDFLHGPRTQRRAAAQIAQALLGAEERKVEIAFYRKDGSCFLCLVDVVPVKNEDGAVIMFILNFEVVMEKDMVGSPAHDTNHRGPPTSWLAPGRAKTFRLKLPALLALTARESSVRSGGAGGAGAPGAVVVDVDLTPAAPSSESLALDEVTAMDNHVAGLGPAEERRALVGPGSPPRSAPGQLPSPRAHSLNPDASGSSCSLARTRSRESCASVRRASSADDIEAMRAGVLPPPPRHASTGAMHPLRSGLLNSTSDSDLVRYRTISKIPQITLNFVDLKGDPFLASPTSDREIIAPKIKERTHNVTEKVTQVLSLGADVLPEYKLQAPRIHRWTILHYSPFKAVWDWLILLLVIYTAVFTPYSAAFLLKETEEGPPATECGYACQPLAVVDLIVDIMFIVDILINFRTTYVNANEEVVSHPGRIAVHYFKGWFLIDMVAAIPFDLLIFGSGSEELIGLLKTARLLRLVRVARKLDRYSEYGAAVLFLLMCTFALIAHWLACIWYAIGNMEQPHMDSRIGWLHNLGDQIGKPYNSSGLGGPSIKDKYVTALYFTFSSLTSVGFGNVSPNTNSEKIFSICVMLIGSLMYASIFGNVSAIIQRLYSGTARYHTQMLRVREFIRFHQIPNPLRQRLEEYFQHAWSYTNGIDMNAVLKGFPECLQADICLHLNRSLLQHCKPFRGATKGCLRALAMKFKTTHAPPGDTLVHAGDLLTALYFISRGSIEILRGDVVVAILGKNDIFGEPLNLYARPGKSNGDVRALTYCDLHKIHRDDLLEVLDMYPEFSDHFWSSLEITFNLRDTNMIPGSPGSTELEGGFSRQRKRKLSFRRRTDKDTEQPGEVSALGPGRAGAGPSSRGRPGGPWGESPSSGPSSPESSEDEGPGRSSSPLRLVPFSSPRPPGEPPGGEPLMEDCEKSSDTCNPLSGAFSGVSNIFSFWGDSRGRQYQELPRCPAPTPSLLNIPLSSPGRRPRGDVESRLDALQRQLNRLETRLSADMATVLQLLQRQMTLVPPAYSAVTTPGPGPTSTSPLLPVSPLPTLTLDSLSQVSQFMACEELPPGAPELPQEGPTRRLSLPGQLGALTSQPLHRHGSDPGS", "settings": "cited from earlier work"}, "[7]": {"system": "isolated rabbit Purkinje fibers", "settings": "5 μM; cited from earlier work"}, "rabbit heart [8]": {"system": "rabbit heart", "remark": "listed apart in the source"}, "in vitro rabbit heart [9]": {"system": "in vitro rabbit heart"}, "[10]": {"settings": "cited from earlier work", "remark": "listed apart in the source"}, "[11]": {"settings": "crizotinib 2 mg/kg, vs baseline"}, "[12]": {"settings": "crizotinib 3 mg/kg, vs baseline"}, "[13]": {"settings": "cancer patients given 500 mg BID"}, "[14]": {"settings": "children with cancer, 280 mg/m^2 BID"}, "[15]": {"settings": "read-out: hERG IC50, literature"}, "[16]": {"settings": "Chinese patients given 400 mg BID"}, "[17]": {"settings": "cancer patients given 400 mg BID"}}, "note": "Where a name gives a salt, the structure may show the parent alone. Read-outs that look alike come from different tables or passages of the source. Marks after values point to notes of the source that are not given here.", "data": [{"compound": "O=C1c2cccc3c2[C@H](CCC3)CN1[C@@H]1CN2CCC1CC2", "note": "[Aloxi, palonasitron HCL]", "values": [{"measurement": "incidence of EKG adverse events", "setting": "[1]; doses above 2.25 mg", "value": "> 2", "unit": "%"}, {"measurement": "incidence of bradycardia", "setting": "[1]; doses above 2.25 mg", "value": 4, "unit": "%"}, {"measurement": "incidence of QT prolongation", "setting": "[1]", "value": 5, "unit": "%"}]}, {"compound": "CC(C)COCC(CN(Cc1ccccc1)c1ccccc1)N1CCCC1", "note": "(centres unmarked) [Bepridil]", "values": [{"measurement": "EC50", "setting": "calcium channel", "value": 10, "unit": "µM"}]}, {"compound": "C[C@@H](Oc1cc(-c2cnn(C3CCNCC3)c2)cnc1N)c1c(Cl)ccc(F)c1Cl", "note": "[Crizotinib]", "values": [{"measurement": "QRS Intervals", "setting": "rabbit heart [2]; crizotinib 1 mg/kg IV", "value": 48, "unit": "ms"}, {"measurement": "QT Intervals", "setting": "rabbit heart [2]; crizotinib 1 mg/kg IV", "value": "189* ms"}, {"measurement": "QTc interval (Van der Water)", "setting": "rabbit heart [2]; crizotinib 1 mg/kg IV", "value": "251* ms"}, {"measurement": "QRS Intervals", "setting": "rabbit heart [2]; crizotinib 2 mg/kg IV", "value": "53* ms"}, {"measurement": "QT Intervals", "setting": "rabbit heart [2]; crizotinib 2 mg/kg IV", "value": "205* ms"}, {"measurement": "QTc interval (Van der Water)", "setting": "rabbit heart [2]; crizotinib 2 mg/kg IV", "value": "264* ms"}, {"measurement": "RR Intervals", "setting": "rabbit heart [2]; crizotinib 2 mg/kg IV", "value": "324* ms"}, {"measurement": "QT interval prolongation", "setting": "rabbit heart [2]; [11]", "value": 34, "unit": "ms"}, {"measurement": "RR interval prolongation", "setting": "rabbit heart [2]; [11]", "value": 67, "unit": "ms"}, {"measurement": "QRS Intervals", "setting": "rabbit heart [2]; crizotinib 3 mg/kg IV", "value": "56* ms"}, {"measurement": "QT Intervals", "setting": "rabbit heart [2]; crizotinib 3 mg/kg IV", "value": "218* ms"}, {"measurement": "QTc interval (Van der Water)", "setting": "rabbit heart [2]; crizotinib 3 mg/kg IV", "value": "273* ms"}, {"measurement": "RR Intervals", "setting": "rabbit heart [2]; crizotinib 3 mg/kg IV", "value": "367* ms"}, {"measurement": "PR interval prolongation", "setting": "rabbit heart [2]; [12]", "value": 23, "unit": "ms"}, {"measurement": "QRS interval prolongation", "setting": "rabbit heart [2]; [12]", "value": 13, "unit": "ms"}, {"measurement": "QT interval prolongation", "setting": "rabbit heart [2]; [12]", "value": 48, "unit": "ms"}, {"measurement": "QTc interval prolongation (Van der Water)", "setting": "rabbit heart [2]; [12]", "value": 38, "unit": "ms"}, {"measurement": "RR interval prolongation", "setting": "rabbit heart [2]; [12]", "value": 110, "unit": "ms"}, {"measurement": "RR Intervals", "setting": "rabbit heart [2]; crizotinib loading dose 1 mg/kg IV", "value": "294* ms"}, {"measurement": "IC50", "setting": "NaV1.5", "value": 3.5, "unit": "µM"}, {"measurement": "IC50", "setting": "CaV", "value": 3.1, "unit": "µM"}, {"measurement": "steady state Cmax", "setting": "[3]; [13]", "value": 650, "unit": "ng/mL"}, {"measurement": "Cmax", "setting": "[3]; [13]", "value": 1500, "unit": "nM"}, {"measurement": "steady state Cmax", "setting": "[3]; [14]", "value": 630, "unit": "ng/mL"}, {"measurement": "Cmax", "setting": "[3]; [14]", "value": 1400, "unit": "nM"}, {"measurement": "ECG effect in dogs (in words)", "setting": "[4]", "value": "increased PR-, QRS- and QT-intervals"}, {"measurement": "effect on the QTc interval of in vitro rabbit hearts (in words)", "setting": "in vitro rabbit heart [5]", "value": "dose dependent prolongation of the QTc interval"}, {"measurement": "effect on LVP (in words)", "setting": "in vitro rabbit hearts", "value": "decrease in LVP"}]}, {"compound": "COc1cccc2c1C(=O)c1c(O)c3c(c(O)c1C2=O)C[C@@](O)(C(=O)CO)C[C@@H]3O[C@H]1C[C@H](N)[C@H](O)[C@H](C)O1", "note": "[Doxorubicin]", "values": [{"measurement": "IC50", "setting": "IKs", "value": 4.78, "unit": "µM"}, {"measurement": "QTc prolongation", "setting": "[6]; 30 uM", "value": 13, "unit": "%"}]}, {"compound": "CCCCc1oc2ccc(NS(C)(=O)=O)cc2c1C(=O)c1ccc(OCCCN(CCCC)CCCC)cc1", "note": "[Dronedarone]", "values": [{"measurement": "IC50", "setting": "hERG; [15]", "value": 0.07, "unit": "µM"}, {"measurement": "IC50", "setting": "hERG; read-out: hERG IC50, wild type hERG tails at −40 mV following activation at +30 mV", "value": 0.059, "unit": "µM"}]}, {"compound": "O=C(CCCN1CCC(O)(c2ccc(Cl)cc2)CC1)c1ccc(F)cc1", "note": "[Haloperidol]", "values": [{"measurement": "hERG blocker potency (in words)", "setting": "hERG", "value": "high potency hERG blocker"}]}, {"compound": "CS(=O)(=O)CCNCc1ccc(-c2ccc3ncnc(Nc4ccc(OCc5cccc(F)c5)c(Cl)c4)c3c2)o1", "note": "[Lapatinib]", "values": [{"measurement": "action potential duration (in words)", "setting": "[7]", "value": "prolong action potential duration"}]}, {"compound": "CCC(=O)C(CC(C)N(C)C)(c1ccccc1)c1ccccc1", "note": "(centres unmarked) [Methadone]", "values": [{"measurement": "IC50", "setting": "hERG; [15]", "value": 4.8, "unit": "µM"}]}, {"compound": "COc1c(N2C[C@@H]3CCCN[C@@H]3C2)c(F)cc2c(=O)c(C(=O)O)cn(C3CC3)c12", "note": "[Moxifloxacin]", "values": [{"measurement": "QTc prolongation", "setting": "[6]; 100 uM", "value": 22, "unit": "%"}]}, {"compound": "Cc1cn(-c2cc(NC(=O)c3ccc(C)c(Nc4nccc(-c5cccnc5)n4)c3)cc(C(F)(F)F)c2)cn1", "note": "[Nilotinib]", "values": [{"measurement": "PR Intervals", "setting": "rabbit heart [8]; nilotinib 2 mg/kg IV", "value": 78, "unit": "ms"}, {"measurement": "QRS Intervals", "setting": "rabbit heart [8]; nilotinib 2 mg/kg IV", "value": "44* ms"}, {"measurement": "QT Intervals", "setting": "rabbit heart [8]; nilotinib 2 mg/kg IV", "value": "182* ms"}, {"measurement": "QTc Intervals (Van der Water)", "setting": "rabbit heart [8]; nilotinib 2 mg/kg IV", "value": "245* ms"}, {"measurement": "PR Intervals", "setting": "rabbit heart [8]; nilotinib 4 mg/kg IV", "value": 80, "unit": "ms"}, {"measurement": "QRS Intervals", "setting": "rabbit heart [8]; nilotinib 4 mg/kg IV", "value": "46* ms"}, {"measurement": "QT Intervals", "setting": "rabbit heart [8]; nilotinib 4 mg/kg IV", "value": "201* ms"}, {"measurement": "QTc Intervals (Van der Water)", "setting": "rabbit heart [8]; nilotinib 4 mg/kg IV", "value": "262* ms"}, {"measurement": "RR Intervals", "setting": "rabbit heart [8]; nilotinib 4 mg/kg IV", "value": 307, "unit": "ms"}, {"measurement": "QRS interval prolongation", "setting": "rabbit heart [8]; nilotinib 4 mg/kg, vs baseline", "value": 6, "unit": "ms"}, {"measurement": "QT interval prolongation", "setting": "rabbit heart [8]; nilotinib 4 mg/kg, vs baseline", "value": 41, "unit": "ms"}, {"measurement": "QTc interval prolongation", "setting": "rabbit heart [8]; nilotinib 4 mg/kg, vs baseline", "value": 36, "unit": "ms"}, {"measurement": "RR Intervals", "setting": "rabbit heart [8]; nilotinib loading dose 2 mg/kg IV", "value": 273, "unit": "ms"}, {"measurement": "effect on the QTc interval of in vitro rabbit hearts (in words)", "setting": "in vitro rabbit heart [9]", "value": "dose dependent prolongation of the QTc interval"}, {"measurement": "IC50", "setting": "CaV", "value": "> 3", "unit": "µM"}, {"measurement": "steady state Cmax", "setting": "[3]; [16]", "value": 2161, "unit": "ng/mL"}, {"measurement": "Cmax", "setting": "[3]; [16]", "value": 4100, "unit": "nM"}, {"measurement": "steady state Cmax", "setting": "[3]; [17]", "value": 1754, "unit": "ng/mL"}, {"measurement": "Cmax", "setting": "[3]; [17]", "value": 3300, "unit": "nM"}]}, {"compound": "[K+]", "note": "[Potassium]", "values": [{"measurement": "reduction of the QTc interval", "setting": "[10]; plasma concentration raised by 1.5 mEq/L above baseline", "value": 24, "unit": "%"}]}, {"compound": "COc1ccc(CN(CCN(C)C)c2ccccn2)cc1", "note": "[Pyrilamine]", "values": [{"measurement": "hERG blocker potency (in words)", "setting": "hERG", "value": "low potency hERG blocker"}]}, {"compound": "CC(C)NCC(O)c1ccc(NS(C)(=O)=O)cc1", "note": "(centres unmarked) [Sotalol]", "values": [{"measurement": "incidence of QT prolongation", "setting": "[1]", "value": 2, "unit": "%"}]}, {"compound": "COc1cc2c(Nc3ccc(Br)cc3F)ncnc2cc1OCC1CCN(C)CC1", "note": "[Vandetanib]", "values": [{"measurement": "incidence of QT prolongation", "setting": "[1]", "value": "> 5", "unit": "%"}]}, {"compound": "CC(=O)Oc1ccc2c3c1O[C@H]1[C@@H](OC(C)=O)C=C[C@H]4[C@@H](C2)N(C)CC[C@@]341", "note": "[heroin]", "values": [{"measurement": "IC50", "setting": "hERG", "value": 427, "unit": "µM"}]}, {"compound": "CC(C)NCC(O)COc1cccc2ccccc12", "note": "(centres unmarked) [propranolol]", "values": [{"measurement": "decrease of risk of cardiac events", "setting": "[10]; LQT1", "value": 81, "unit": "%"}, {"measurement": "subjects still developing cardiac events on adequate treatment", "setting": "[10]; LQT1", "value": 10, "unit": "%"}, {"measurement": "subjects still developing cardiac events", "setting": "[10]; LQT2", "value": 23, "unit": "%"}, {"measurement": "decrease of cardiac event risk", "setting": "[10]; LQT2 subjects", "value": 59, "unit": "%"}, {"measurement": "subjects developing cardiac events on adequate treatment", "setting": "[10]; LQT3", "value": 32, "unit": "%"}]}, {"compound": "Arsenic trioxide", "values": [{"measurement": "hERG blocker potency (in words)", "setting": "hERG; literature", "value": "ineffective hERG blocker"}, {"measurement": "IC50", "setting": "hERG; [15]", "value": "> 300", "unit": "µM"}]}]}
